In patent publication US11952586B2, “B-cell cultivation method” (Hoffmann-La Roche Inc., priority 2017, dated 2024):

Tested on: single deposited B-cells
Test: co-cultivation of single deposited B-cells with EL-4 B5 cells; antigen binding immunoassay (HSA)
Format: cell-based, rabbit
Experimental: Single cell sorted B-cells were cultured in 96-well plates with 200 μl/well EL-4 B5 medium with Pansorbin Cells (SAC) (Calbiochem (Merck), Darmstadt, Deutschland), EL-4 B5 cells (0-5×10^4/well) and rabbit thymocyte supernatant or cytokine mix, respectively, for 7 days at 37° C. in an atmosphere of 5% CO2 in the incubator. B-cell culture supernatants were removed for screening and the cells harvested immediately for variable region gene cloning or frozen at −80° C. in 100 μl RLT buffer (Qiagen, Hilden, Germany).
The assay was performed at room temperature (RT) on 384-well MaxiSorp microtiter plates (Thermo Scientific) with PBS (phosphate buffered saline) buffer supplemented with 0.5% Gelatin and 0.025% Tween®-20. The plates were coated with 0.5 μg/ml of human serum albumin (HSA, Sigma-Aldrich) for at least 2 hours to overnight. After washing (3×) with PBST (PBS with 0.1% Tween®-20) buffer the wells were blocked with PBS with 0.5% Gelatin and 0.1% Tween®-20. Again, the plates were washed three-times and afterwards dilutions of B-cell supernatants were added. After an incubation of 60 min and 3 washing steps with PBST a 1:4,000 dilution of a HRP-conjugated anti-rabbit IgG antibody (Amersham) was transferred to the wells and incubated for 60 min. Finally, the plates were repeatedly washed (6×) with PBST and developed with BM Blue® HRP substrate solution for 30 min. Absorbance was measured at 392-405 nm.

[1] = PMA 0.048 ng/ml, 3 Gy, 15k/Well
[2] = PMA 0.048 ng/ml, 4 Gy, 20k/Well
[3] = PMA 0.048 ng/ml, 5 Gy, 20k/Well
[4] = PMA 0.048 ng/ml, 8 Gy, 20k/Well
[5] = PMA 0.048 ng/ml, 50 Gy, 50k/Well
[6] = PMA 0.109 ng/ml, 3 Gy, 15k/Well
[7] = PMA 0.109 ng/ml, 4 Gy, 20k/Well
[8] = PMA 0.109 ng/ml, 5 Gy, 20k/Well
[9] = PMA 0.109 ng/ml, 8 Gy, 20k/Well
[10] = PMA 0.109 ng/ml, 50 Gy, 50k/Well
[11] = PMA 0.25 ng/ml, 50 Gy, 50k/Well
[12] = PMA 0.57 ng/ml, 50 Gy, 50k/Well
[13] = PMA 1.3 ng/ml, 3 Gy, 15k/Well, HSA immunized rabbit

CCCCCCCCCCCCCC(=O)O[C@@H]1[C@@H](C)[C@@]2(O)[C@@H](C=C(CO)C[C@]3(O)C(=O)C(C)=C[C@@H]23)[C@@H]2C(C)(C)[C@]12OC(C)=O [PMA, phorbol-12-myristate-13-acetate]
HSA (absolute corrected) Freq./plate OD>c [1]: 25 % total | HSA (absolute corrected) Freq./plate OD>c and rbIgG+ [1]: 48.8 % IgG | HSA (absolute corrected) Freq./plate OD>c [2]: 36.9 % total | HSA (absolute corrected) Freq./plate OD>c and rbIgG+ [2]: 50 % IgG | HSA (absolute corrected) Freq./plate OD>c [3]: 27.4 % total | HSA (absolute corrected) Freq./plate OD>c and rbIgG+ [3]: 38.3 % IgG | HSA (absolute corrected) Freq./plate OD>c [4]: 42.9 % total | HSA (absolute corrected) Freq./plate OD>c and rbIgG+ [4]: 49.3 % IgG | HSA (absolute corrected) Freq./plate OD>c [5]: 14.3 % total | HSA (absolute corrected) Freq./plate OD>c and rbIgG+ [5]: 58.3 % IgG | HSA (absolute corrected) Freq./plate OD>c [6]: 9.5 % total | HSA (absolute corrected) Freq./plate OD>c and rbIgG+ [6]: 17.5 % IgG | HSA (absolute corrected) Freq./plate OD>c [7]: 32.1 % total | HSA (absolute corrected) Freq./plate OD>c and rbIgG+ [7]: 42.2 % IgG | HSA (absolute corrected) Freq./plate OD>c [8]: 42.9 % total | HSA (absolute corrected) Freq./plate OD>c and rbIgG+ [8]: 47.1 % IgG | HSA (absolute corrected) Freq./plate OD>c [9]: 32.1 % total | HSA (absolute corrected) Freq./plate OD>c and rbIgG+ [9]: 41.5 % IgG | HSA (absolute corrected) Freq./plate OD>c [10]: 9.5 % total | HSA (absolute corrected) Freq./plate OD>c and rbIgG+ [10]: 50 % IgG | HSA (absolute corrected) Freq./plate OD>c (PMA 0.25 ng/ml, 3 Gy, 15k/Well): 21.4 % total | HSA (absolute corrected) Freq./plate OD>c and rbIgG+ (PMA 0.25 ng/ml, 3 Gy, 15k/Well): 45 % IgG | HSA (absolute corrected) Freq./plate OD>c (PMA 0.25 ng/ml, 4 Gy, 20k/Well): 33.3 % total | HSA (absolute corrected) Freq./plate OD>c and rbIgG+ (PMA 0.25 ng/ml, 4 Gy, 20k/Well): 44.4 % IgG | HSA (absolute corrected) Freq./plate OD>c (PMA 0.25 ng/ml, 5 Gy, 20k/Well): 32.1 % total | HSA (absolute corrected) Freq./plate OD>c and rbIgG+ (PMA 0.25 ng/ml, 5 Gy, 20k/Well): 38 % IgG | HSA (absolute corrected) Freq./plate OD>c (PMA 0.25 ng/ml, 8 Gy, 20k/Well): 32.1 % total | HSA (absolute corrected) Freq./plate OD>c and rbIgG+ (PMA 0.25 ng/ml, 8 Gy, 20k/Well): 36.5 % IgG | HSA (absolute corrected) Freq./plate OD>c [11]: 13.1 % total | HSA (absolute corrected) Freq./plate OD>c and rbIgG+ [11]: 47.1 % IgG | HSA (absolute corrected) Freq./plate OD>c (PMA 0.57 ng/ml, 3 Gy, 15k/Well): 11.9 % total | HSA (absolute corrected) Freq./plate OD>c and rbIgG+ (PMA 0.57 ng/ml, 3 Gy, 15k/Well): 33.3 % IgG | HSA (absolute corrected) Freq./plate OD>c (PMA 0.57 ng/ml, 4 Gy, 20k/Well): 26.2 % total | HSA (absolute corrected) Freq./plate OD>c and rbIgG+ (PMA 0.57 ng/ml, 4 Gy, 20k/Well): 36.1 % IgG | HSA (absolute corrected) Freq./plate OD>c (PMA 0.57 ng/ml, 5 Gy, 20k/Well): 38.1 % total | HSA (absolute corrected) Freq./plate OD>c and rbIgG+ (PMA 0.57 ng/ml, 5 Gy, 20k/Well): 43.8 % IgG | HSA (absolute corrected) Freq./plate OD>c (PMA 0.57 ng/ml, 8 Gy, 20k/Well): 35.7 % total | HSA (absolute corrected) Freq./plate OD>c and rbIgG+ (PMA 0.57 ng/ml, 8 Gy, 20k/Well): 44.1 % IgG | HSA (absolute corrected) Freq./plate OD>c [12]: 40.5 % total | HSA (absolute corrected) Freq./plate OD>c and rbIgG+ [12]: 46.5 % IgG | HSA (absolute corrected) Freq./plate OD>c [13]: 3.6 % total | HSA (absolute corrected) Freq./plate OD>c and rbIgG+ [13]: 42.9 % IgG | HSA (absolute corrected) Freq./plate OD>c (PMA 1.3 ng/ml, 4 Gy, 20k/Well): 31 % total | HSA (absolute corrected) Freq./plate OD>c and rbIgG+ (PMA 1.3 ng/ml, 4 Gy, 20k/Well): 42.6 % IgG | HSA (absolute corrected) Freq./plate OD>c (PMA 1.3 ng/ml, 5 Gy, 20k/Well): 34.5 % total | HSA (absolute corrected) Freq./plate OD>c and rbIgG+ (PMA 1.3 ng/ml, 5 Gy, 20k/Well): 40.8 % IgG | HSA (absolute corrected) Freq./plate OD>c (PMA 1.3 ng/ml, 8 Gy, 20k/Well): 36.9 % total | HSA (absolute corrected) Freq./plate OD>c and rbIgG+ (PMA 1.3 ng/ml, 8 Gy, 20k/Well): 40.5 % IgG | HSA (absolute corrected) Freq./plate OD>c (PMA 1.3 ng/ml, 50 Gy, 50k/Well): 40.5 % total | HSA (absolute corrected) Freq./plate OD>c and rbIgG+ (PMA 1.3 ng/ml, 50 Gy, 50k/Well): 47.1 % IgG
